Assays:
maize = experiment: Field trial, phytotoxicity to maize (post-emergence)
Protocol: (§1) The field experiments were carried out in plots of 8 to 10 m^2, and each experiment was carried out in 2 to 4 replications. After the crop plants had been sown, the test preparations were applied pre-emergence, or in the 2-6-leaf stage, using plot sprayers. The spray volume was 100-300 l water/ha; it was applied by means of flat-jet nozzles at a pressure of 2-3 bar. Evaluation was done by visual scoring. The effects on the crop plants or on the broad-leaved weeds/grass weeds were estimated in comparison with untreated control plots using a percentage scale (0-100%). After application, the plants were scored 3-4 times at intervals of approx. 14, 28, 42 days after application. The results represent averages over 2-4 replications. […] Anti-weed action should show efficacies of ≧60%. From sowing until the experiments were concluded, they were exposed to the natural weather conditions (precipitation, temperature, atmospheric humidity, insolation), as they are characteristic for the experimental sites.

Abutilon theophrastis = experiment: Field trial, action on grass weeds/broad-leaved weeds (post-emergence); format: in vivo; settings: 100 g a.i./ha
Protocol: as §1

Panicum minor = experiment: as above; format: in vivo; settings: 100 g a.i./ha
Protocol: as §1

Setaria faberi = experiment: as above; format: in vivo; settings: 100 g a.i./ha
Protocol: as §1

Row | SMILES | Phytotoxicity to maize [%] 14 dat (maize; maize, in vivo, 14 days) [%] | Phytotoxicity to maize [%] 42 dat (maize; maize, in vivo, 42 days) [%] | Phytotoxicity to maize [%] 14 dat (maize; field trial, 4-leaf stage (Table 11), 120 g a.i./ha, 14 days after treatment) [%] | Phytotoxicity to maize [%] 42 dat (maize; field trial, 4-leaf stage (Table 11), 120 g a.i./ha, 42 days after treatment) [%] | Phytotoxicity to maize [%] 14 dat (maize; field trial, 4-leaf stage, post-emergence, 100 g a.i./ha, 14 days after treatment) [%] | Phytotoxicity to maize [%] 31 dat (maize; field trial, 4-leaf stage, post-emergence, 100 g a.i./ha, 31 days after treatment) [%] | Phytotoxicity to maize [%] 14 dat (maize; field trial, mixture with sulfonylureas, post-emergence (Table 13), 120 g a.i./ha, 14 days after treatment) [%] | Phytotoxicity to maize [%] 42 dat (maize; field trial, mixture with sulfonylureas, post-emergence (Table 13), 120 g a.i./ha, 42 days after treatment) [%] | Phytotoxicity [%] Maize (maize; field trial, post-emergence (Table 12), 100 g a.i./ha) [%] | Phytotoxicity [%] Abutilon theophrastis (Abutilon theophrastis) [%] | Phytotoxicity [%] Panicum minor (Panicum minor) [%] | Phytotoxicity [%] Setaria faberi (Setaria faberi) [%]
1 | COc1cc(OC)nc(NC(=O)NS(=O)(=O)c2cc(NC=O)ccc2C(=O)N(C)C)n1 [Herbicide 2, N,N-Dimethyl-2-[3-(4,6-dimethoxypyrimidin-2-yl)ureido-sulfonyl]-4-formylaminobenzamide] | 13 | 7 | – | – | – | – | – | – | – | – | – | –
2 | CCOC(=O)C1=NOC(c2ccccc2)(c2ccccc2)C1 [Safener II-9, Ethyl 5,5-diphenyl-2-isoxazoline-3-carboxylate] | – | – | 0 | 0 | 0 | 0 | 0 | 0 | 0 | 0 | 0 | 0
